The values below come from PubChem BioAssay (NCI).

Test systems include KM12 colon; TK-10 renal; SF-268 CNS; HOP-62 NSCLC; OVCAR-3 ovarian; MDA-MB-231 breast; NCI-H522 lung; NCI-H460 lung; UACC-257 melanoma; HL-60(TB) leukemia.
Assay in all cases: inhibition of tumour cell growth, NCI panel, 48 h

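Dose response: 5 concentrations. Exposure: 48 h. Format: 96-well plates. Endpoint: linear interpolation; highest concentration if not reached. GI50: concentration for 50% inhibition of growth. TGI denotes the concentration required for complete inhibition of growth.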 Where only a bound is given, the exact number is not on record here.

`COc1cc2c3c(n(CCCCl)c(=O)c2cc1OC)-c1ccc(C#N)cc1C3=O`: the GI50 with KM12 colon is more than 100 µM; in the test with TK-10 renal, 13.5 µM; in the test with SF-268 CNS, 19.5 µM; in the test on HOP-62 NSCLC it was 14.7 µM; in the test with OVCAR-3 ovarian, 12.9 µM; in the test with MDA-MB-231 breast, 1.67 µM. The figures for the GI50 in the test with NCI-H522 lung, in the test on NCI-H460 lung and with UACC-257 melanoma were 6.63 µM, 10.8 µM and 54.9 µM, respectively. The TGI in the test on KM12 colon was more than 100 µM; in the test with TK-10 renal, 29.3 µM; in the test on SF-268 CNS, more than 100 µM; with HOP-62 NSCLC, 30.2 µM; in the test on OVCAR-3 ovarian, 30.1 µM; in the test with MDA-MB-231 breast it was 10.2 µM. Further, the TGI in the test with NCI-H522 lung is 59.2 µM; in the test on NCI-H460 lung, more than 100 µM; in the test with UACC-257 melanoma, more than 100 µM.
Consider `Nc1c(C(=O)Nc2ccccc2)sc2nc3c(cc12)CCCC3`, for which the GI50 was 0.485 µM in the test with KM12 colon; 16.8 µM with TK-10 renal; 2.2 µM with SF-268 CNS; 0.781 µM with HOP-62 NSCLC; 0.481 µM in the test on OVCAR-3 ovarian; 3.93 µM with MDA-MB-231 breast. For the same compound, the GI50 was 0.872 µM in the test on NCI-H522 lung, 0.458 µM in the test with NCI-H460 lung and 0.299 µM with HL-60(TB) leukemia. The TGI was more than 100 µM with KM12 colon; more than 100 µM with TK-10 renal; more than 100 µM in the test with SF-268 CNS; more than 67.6 µM in the test with HOP-62 NSCLC; 12.3 µM in the test on OVCAR-3 ovarian; more than 100 µM with MDA-MB-231 breast. The TGI with NCI-H522 lung was more than 25.8 µM; in the test on NCI-H460 lung, more than 75.9 µM; in the test with HL-60(TB) leukemia it was 20.8 µM.
Consider `O=CC1(C2(C=O)c3ccccc3-c3ccccc32)c2ccccc2-c2ccccc21`, for which the GI50 is 2.63 µM in the test on TK-10 renal; 2.37 µM in the test on SF-268 CNS; 6.17 µM in the test with HOP-62 NSCLC; 1.4 µM in the test on OVCAR-3 ovarian; 2.8 µM in the test with MDA-MB-231 breast; 2.01 µM in the test on NCI-H522 lung. Moreover, the GI50 with NCI-H460 lung is 1.56 µM; with HL-60(TB) leukemia it was 1.75 µM; with UACC-257 melanoma, 2.16 µM. The TGI with TK-10 renal was 5.51 µM; in the test with SF-268 CNS, 6.03 µM; in the test with HOP-62 NSCLC it was 10.4 µM; with OVCAR-3 ovarian it was 3.39 µM; in the test with MDA-MB-231 breast, 6.98 µM; with NCI-H522 lung it was 4.38 µM. Besides, the TGI worked out at 2.85 µM in the test with NCI-H460 lung, 3.21 µM with HL-60(TB) leukemia and 5.29 µM in the test on UACC-257 melanoma.
Regarding `Oc1cc2ccccc2cc1-c1n[nH]c(=S)n1-c1ccc(Cl)cc1`, the GI50 is 9.14 µM with KM12 colon; 18.9 µM in the test on TK-10 renal; 6.46 µM in the test with SF-268 CNS; 20.3 µM in the test with OVCAR-3 ovarian; 8.88 µM with MDA-MB-231 breast; 5.65 µM with NCI-H522 lung. The GI50 was 19 µM with HL-60(TB) leukemia and 18.7 µM in the test with UACC-257 melanoma. Further, the TGI with KM12 colon is more than 100 µM; in the test with TK-10 renal, 63 µM; in the test with SF-268 CNS it was 32.9 µM; with OVCAR-3 ovarian it was more than 100 µM; in the test with MDA-MB-231 breast, 38.3 µM; in the test with NCI-H522 lung, 35.2 µM. In addition, the TGI is more than 100 µM in the test on HL-60(TB) leukemia and 56.7 µM in the test with UACC-257 melanoma.
For `C=C1C(=O)OC2/C=C(\C)C3OC3/C=C(/C(=O)OC)C(OC(C)=O)C(OC(=O)C(C)(O)C(C)OC(C)=O)C12` (stereo unspecified), the TGI turned out to be 6.36 µM in the test on KM12 colon; 4.21 µM in the test with TK-10 renal; 34.1 µM with SF-268 CNS; 37.5 µM in the test with HOP-62 NSCLC; 13.9 µM with OVCAR-3 ovarian; 22.6 µM in the test on MDA-MB-231 breast. For the same compound, the TGI in the test on NCI-H522 lung was 0.871 µM; with NCI-H460 lung it was 13.3 µM; with UACC-257 melanoma, 2.34 µM.
For the compound `CSc1nc2c(c(=O)[nH]1)C(c1ccc(Cl)cc1)C1=C(N2)/C(=C/c2ccc(Cl)cc2)CNC1` (stereo unspecified), the GI50 with KM12 colon was 2.06 µM; in the test on SF-268 CNS, 2.76 µM; in the test on HOP-62 NSCLC, 2.38 µM; with OVCAR-3 ovarian, 2.23 µM; with MDA-MB-231 breast it was 1.75 µM; in the test with NCI-H522 lung it was 1.85 µM. The values for the GI50 in the test with NCI-H460 lung, in the test on HL-60(TB) leukemia and in the test on UACC-257 melanoma were 2.75 µM, 2.44 µM and 2.63 µM, respectively. Besides, the TGI in the test with KM12 colon was found to be 4.47 µM; in the test with HOP-62 NSCLC, 5.11 µM; in the test with OVCAR-3 ovarian it was 5.19 µM; in the test with MDA-MB-231 breast, 4.48 µM; in the test on NCI-H522 lung, 4.81 µM; in the test with NCI-H460 lung it was 7.61 µM. In addition, the figures for the TGI in the test with HL-60(TB) leukemia and in the test on UACC-257 melanoma were 6.26 µM and 9.4 µM, respectively.
For `O=C1OC2C(O)C(=O)OC2C1O` (stereo unspecified), the TGI in the test with KM12 colon, in the test on SF-268 CNS, in the test with HOP-62 NSCLC, in the test with OVCAR-3 ovarian, with MDA-MB-231 breast and in the test on NCI-H522 lung was more than 100 µM throughout. For the same compound, the TGI with NCI-H460 lung, in the test on HL-60(TB) leukemia and in the test on UACC-257 melanoma was more than 100 µM each time.
Regarding `CCN(CC(COc1ccc2c(c1)[n+]([O-])nc(N)[n+]2[O-])OC(C)=O)C(C)=O` (stereo unspecified), the TGI in the test on KM12 colon, with TK-10 renal, in the test on SF-268 CNS, with HOP-62 NSCLC, with OVCAR-3 ovarian and in the test on MDA-MB-231 breast was more than 100 µM each time. The TGI with NCI-H522 lung was 56.3 µM; with HL-60(TB) leukemia, more than 100 µM; in the test on UACC-257 melanoma it was more than 100 µM.
Regarding `O=S(=O)(NCCCNc1cc(-c2cn(-c3ccccc3)nc2-c2cccc(O)c2)ccn1)c1ccc(Cl)cc1`, the GI50 in the test on KM12 colon is 1.95 µM; with TK-10 renal, 3.16 µM; in the test on SF-268 CNS it was 1.55 µM; in the test on HOP-62 NSCLC, 1.52 µM; with OVCAR-3 ovarian, 1.67 µM; in the test with MDA-MB-231 breast, 1.81 µM. Further, the GI50 in the test with NCI-H522 lung was 1.88 µM; in the test on NCI-H460 lung, 1.68 µM; in the test with HL-60(TB) leukemia, 2.09 µM. The TGI with KM12 colon was 4.93 µM; in the test with TK-10 renal, 8.97 µM; in the test on SF-268 CNS it was 5.18 µM; with HOP-62 NSCLC it was 3.25 µM; in the test with OVCAR-3 ovarian, 3.7 µM; in the test with MDA-MB-231 breast it was 4.69 µM. The TGI in the test with NCI-H522 lung was found to be 4.06 µM; with NCI-H460 lung, 3.32 µM; in the test with HL-60(TB) leukemia, 5.61 µM.
As to `CC1=CC2C(C(C)C)CC1C1C(=O)OC(=O)C21` (stereo unspecified), the TGI in the test with TK-10 renal was more than 100 µM; with SF-268 CNS, more than 100 µM; with HOP-62 NSCLC it was more than 100 µM; in the test with OVCAR-3 ovarian, 58.8 µM; in the test on MDA-MB-231 breast, more than 100 µM; in the test with NCI-H522 lung it was more than 100 µM. Further, the figures for the TGI with NCI-H460 lung, in the test with HL-60(TB) leukemia and in the test with UACC-257 melanoma were more than 100 µM, 77.8 µM and more than 100 µM, respectively.
